Measurements reported in patent US8759334B2, “Compounds useful for the treatment of metabolic and inflammatory diseases” (Galapagos NV, priority 2011, dated 2014).

Columns and labels:
[1] = biological target: T1, GPR43 (Homo sapiens, UniProt O15552); test: Calcium mobilization assay without probenecid; assay type: cell-based; conditions: GPR43 stably expressing cells, triggered with sodium acetate at EC80, read-out: GPR43 assay without probenicid IC50
T1 construct: expressed in transfected cells
T1 sequence (O15552 1-330): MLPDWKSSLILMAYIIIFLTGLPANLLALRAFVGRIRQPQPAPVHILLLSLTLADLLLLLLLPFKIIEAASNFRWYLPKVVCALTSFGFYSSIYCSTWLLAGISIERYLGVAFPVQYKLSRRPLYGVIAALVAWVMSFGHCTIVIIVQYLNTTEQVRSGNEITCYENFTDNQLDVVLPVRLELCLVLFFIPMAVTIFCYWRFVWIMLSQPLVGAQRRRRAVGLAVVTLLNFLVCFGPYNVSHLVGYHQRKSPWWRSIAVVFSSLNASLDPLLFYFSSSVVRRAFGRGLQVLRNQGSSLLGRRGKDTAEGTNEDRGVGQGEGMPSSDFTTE
Protocol: The following assay can be used for determination of GPR43 activation. The assay measures intracellular calcium release induced by activation of GPR43. On day 1, GPR43 stably expressing cells were detached with mild trypsinization (Trypsin, 0.25% with EDTA 4Na, 5× diluted in PBS) centrifuged at 1000 rpm for 5 min and resuspended at 6.000 cells/25 μL medium (DMEM supplemented with 10% FBS, 10 μg/mL puromycin and 1% Pen/Strep). The cells were distributed in poly-D-lysine coated 384 well plates (black with clear bottom, 25 μL/well) and incubated overnight at 37° C. 10% CO2. On day 2, 25 μL of a fluorescent Ca^2+ indicator (Calcium 4 assay; Molecular Devices) was added on top of the cells and incubated for 2 h at 37° C. Subsequently, compounds at increasing concentration (10 μL/well) were added to the plate and incubated for 15 min at 37° C. Finally the cells were triggered with sodium acetate at EC80 concentration (concentration which gives 80% of the activity of the GPR43) and the Ca-flux was measured simultaneously to the trigger injection on a fluorescence plate reader (FlexStation3), this measures the antagonist activity of the compounds. To measure agonist activity of the compounds, compound was added to the well and the Ca-flux was measured simultaneously to the injection of compound.

[2] = biological target: T1, GPR43; test: Calcium mobilization assay with probenecid; assay type: cell-based; conditions: GPR43 stably expressing cells; triggered with sodium acetate at EC80; 2.5 mM probenecid; read-out: GPR43 assay with probenicid IC50
Outline: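 […] being added at rising concentrations to a GPR43 stable line. Before this, cells were dye-loaded (Calcium 4 with 2.5 mM probenecid) for 2 h at 37 °C after overnight plating.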

IC50 [1] [µM]	IC50 [2] [µM]	SMILES
> 1	> 1	CN(Cc1ccc(Cl)cc1)C(=O)C1(C)CCN1C(=O)Cc1ccc(-c2ccc(C#N)cc2)cc1 (stereo not drawn) [Compound 24, 1-[2-(4′-Cyano-biphenyl-4-yl)-acetyl]-2-methyl-azetidine-2-carboxylic acid (4-chloro-benzyl)-methyl-amide]
> 1	> 1	COC(=O)[C@H](C)N(Cc1ccc(Cl)cc1)C(=O)C1(C)CCN1C(=O)Cc1cc(C)cc(C)c1 (stereo partly drawn) [Compound 55, (S)-2-((4-Chloro-benzyl)-{1-[2-(3,5-dimethyl-phenyl)-acetyl]-2-methyl-azetidine-2-carbonyl}-amino)-propionic acid methyl ester]
0.101 to 0.5	0.101 to 0.5	Cc1cc(C)cc(CC(=O)N2CCC2(C)C(=O)N(CC(=O)O)Cc2ccc(Cl)cc2)c1 (stereo not drawn) [Compound 49, ((4-Chloro-benzyl)-{1-[2-(3,5-dimethyl-phenyl)-acetyl]-2-methyl-azetidine-2-carbonyl}-amino)-acetic acid]
> 1	> 1	COc1ccc(-c2ccc(CC(=O)N3CCC3(C)C(=O)N(C)Cc3ccc(Cl)cc3)cc2)cc1 (stereo not drawn) [Compound 23, 1-[2-(4′-Methoxy-biphenyl-4-yl)-acetyl]-2-methyl-azetidine-2-carboxylic acid (4-chloro-benzyl)-methyl-amide]
> 1	> 1	CN(Cc1ccc(Cl)cc1)C(=O)C1(C)CCN1C(=O)Cc1ccc(F)c(F)c1 (stereo not drawn) [Compound 12, 1-[2-(3,4-Difluoro-phenyl)-acetyl]-2-methyl-azetidine-2-carboxylic acid (4-chloro-benzyl)-methyl-amide]
0.501 to 1	> 1	Cc1cc(C)cc(CC(=O)N2CCC2(C)C(=O)N(C)Cc2ccc(C(C)C)cc2)c1 (stereo not drawn) [Compound 31, 1-[2-(3,5-Dimethyl-phenyl)-acetyl]-2-methyl-azetidine-2-carboxylic acid (4-isopropyl-benzyl)-methyl-amide]
> 1	> 1	CC1(C(=O)Nc2ccc(Cl)cc2)CCN1C(=O)Cc1ccc(Cl)cc1Cl (stereo not drawn) [Compound 4, 1-[2-(2,4-Dichloro-phenyl)-acetyl]-2-methyl-azetidine-2-carboxylic acid (4-chloro-phenyl)-amide]
> 1	> 1	CN(Cc1ccc(Cl)cc1)C(=O)C1(C)CCN1C(=O)Cc1ccccc1I (stereo not drawn) [Compound 17, 1-[2-(2-Iodo-phenyl)-acetyl]-2-methyl-azetidine-2-carboxylic acid (4-chloro-benzyl)-methyl-amide]
0.101 to 0.5	–	Cc1cc(C)cc(CC(=O)N2CCC2(C)C(=O)N(CCO)Cc2ccc(Cl)cc2)c1 (stereo not drawn) [Compound 47, 1-[2-(3,5-Dimethyl-phenyl)-acetyl]-2-methyl-azetidine-2-carboxylic acid (4-chloro-benzyl)-(2-hydroxy-ethyl)-amide]
0.101 to 0.5	–	Cc1cc(C)cc(CC(=O)N2CCC2(C)C(=O)N(CCCC(=O)O)Cc2ccc(Cl)cc2)c1 (stereo not drawn) [Compound 64, 4-((4-Chloro-benzyl)-{1-[2-(3,5-dimethyl-phenyl)-acetyl]-2-methyl-azetidine-2-carbonyl}-amino)-butyric acid]
> 1	–	Cc1cc(C)cc(CC(=O)N2CCC2(C)C(=O)N(CCC(=O)O)Cc2ccc(Cl)cc2)c1 (stereo not drawn) [Compound 65, 3-((4-chloro-benzyl)-{1-[2-(3,5-dimethyl-phenyl)-acetyl]-2-methyl-azetidine-2-carbonyl}-amino)-propionic acid]
0.501 to 1	–	COC(=O)CCN(Cc1ccc(Cl)cc1)C(=O)C1(C)CCN1C(=O)Cc1cc(C)cc(C)c1 (stereo not drawn) [Compound 62, 3-((4-Chloro-benzyl)-{1-[2-(3,5-dimethyl-phenyl)-acetyl]-2-methyl-azetidine-2-carbonyl}-amino)-propionic acid methyl ester]
> 1	–	Cc1cc(C)cc(CC(=O)N2CC[C@@]2(C)C(=O)N(CC(=O)O)Cc2ccc(Cl)cc2)c1 [Compound 81a, ((4-Chloro-benzyl)-{(S)-1-[2-(3,5-dimethyl-phenyl)-acetyl]-2-methyl-azetidine-2-carbonyl}-amino)-acetic acid]
